For 20 molecules, IC50 results are on record in patent US10479780B2, “Aminopyrazole derivatives” (Chugai Seiyaku Kabushiki Kaisha, priority 2015, dated 2019).

Assay type in all cases: biochemical
One test concerns the target T1, human Lck enzyme (Homo sapiens, UniProt P06239).
T1 construct: purchased Carna Biosciences, Inc. 08-170
The experiment in a line: Lck enzyme inhibitory activity (time-resolved fluorometry, biotinylated peptide phosphorylation). To be noted: read-out: LCK_IC50. The essentials:
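Readout pairs a europium cryptate-labelled anti-phosphotyrosine antibody with XL665-streptavidin, measured by time-resolved fluorescence. IC50 derived from percent inhibition against untreated controls.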

The next test deals with T2, human Src enzyme (Homo sapiens, UniProt P12931).
T2 construct: purchased Carna Biosciences, Inc. 08-173
The experiment in a line: Src enzyme inhibitory activity (time-resolved fluorometry, biotinylated peptide phosphorylation). To be noted: read-out: SRC_IC50. The essentials:
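Compounds were tested for blocking tyrosine phosphorylation of a biotinylated peptide substrate by recombinant human Src. Phosphorylated product was quantified by time-resolved fluorometry using europium cryptate and XL665 conjugates, and IC50 was calculated against the compound-free control.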

For the next test, the target named is T3, human Yes1 enzyme (Homo sapiens, UniProt P07947).
T3 construct: made in house
The test is described as follows: Yes1 enzyme inhibitory activity (time-resolved fluorometry, biotinylated peptide phosphorylation). To be noted: read-out: YES_IC50. The essentials: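 Inhibition was expressed against a compound-free control to give IC50, using TR-FRET read-out (Eu-cryptate anti-pTyr antibody, streptavidin-XL665).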

Setting [1] is: biotinylated peptide phosphorylation.

Read-outs that look alike come from different tables or passages of the source.

T1 sequence (P06239 whole entry): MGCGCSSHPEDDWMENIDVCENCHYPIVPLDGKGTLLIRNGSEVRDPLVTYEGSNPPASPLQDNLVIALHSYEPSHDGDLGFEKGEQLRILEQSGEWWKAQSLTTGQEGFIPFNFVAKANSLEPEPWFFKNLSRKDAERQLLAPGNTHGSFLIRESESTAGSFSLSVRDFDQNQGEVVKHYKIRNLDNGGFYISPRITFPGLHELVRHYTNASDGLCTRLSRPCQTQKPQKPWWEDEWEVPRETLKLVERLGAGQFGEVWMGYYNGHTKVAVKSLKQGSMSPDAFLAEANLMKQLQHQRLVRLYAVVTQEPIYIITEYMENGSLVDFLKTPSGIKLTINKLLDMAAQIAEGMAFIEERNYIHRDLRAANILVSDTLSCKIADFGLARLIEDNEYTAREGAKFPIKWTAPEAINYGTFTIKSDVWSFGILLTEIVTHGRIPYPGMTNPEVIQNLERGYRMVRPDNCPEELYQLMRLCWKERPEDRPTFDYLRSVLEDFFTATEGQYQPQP
T2 sequence (P12931 whole entry): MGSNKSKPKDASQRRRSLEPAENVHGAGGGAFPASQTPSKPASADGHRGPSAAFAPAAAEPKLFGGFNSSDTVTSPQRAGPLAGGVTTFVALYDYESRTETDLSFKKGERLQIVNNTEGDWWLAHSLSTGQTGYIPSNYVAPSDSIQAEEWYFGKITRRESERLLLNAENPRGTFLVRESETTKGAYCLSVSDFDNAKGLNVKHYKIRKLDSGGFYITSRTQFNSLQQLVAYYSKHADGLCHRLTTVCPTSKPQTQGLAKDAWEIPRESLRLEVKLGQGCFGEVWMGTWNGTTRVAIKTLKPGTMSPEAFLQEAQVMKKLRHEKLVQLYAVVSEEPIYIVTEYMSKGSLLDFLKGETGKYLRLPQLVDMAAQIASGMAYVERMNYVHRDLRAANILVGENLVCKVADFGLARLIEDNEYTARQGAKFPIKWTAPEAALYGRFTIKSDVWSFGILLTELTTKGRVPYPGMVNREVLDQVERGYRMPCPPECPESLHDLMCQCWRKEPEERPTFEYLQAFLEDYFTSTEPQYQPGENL
T3 sequence (P07947 whole entry): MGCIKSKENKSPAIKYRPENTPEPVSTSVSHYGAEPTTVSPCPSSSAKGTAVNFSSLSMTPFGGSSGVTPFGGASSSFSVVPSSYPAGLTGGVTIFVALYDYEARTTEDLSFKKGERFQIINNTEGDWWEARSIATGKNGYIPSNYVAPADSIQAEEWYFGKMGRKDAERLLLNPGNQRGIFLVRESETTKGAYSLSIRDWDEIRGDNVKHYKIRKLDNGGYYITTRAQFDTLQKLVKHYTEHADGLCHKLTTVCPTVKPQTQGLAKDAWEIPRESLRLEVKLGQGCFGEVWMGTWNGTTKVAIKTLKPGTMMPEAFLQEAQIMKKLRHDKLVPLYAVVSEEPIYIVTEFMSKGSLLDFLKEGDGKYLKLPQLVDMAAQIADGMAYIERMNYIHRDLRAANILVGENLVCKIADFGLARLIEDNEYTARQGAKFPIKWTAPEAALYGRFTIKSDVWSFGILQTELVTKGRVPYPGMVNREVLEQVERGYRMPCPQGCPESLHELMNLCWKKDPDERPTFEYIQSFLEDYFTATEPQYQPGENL

In the case of `Cc1cc2cc(C(=O)c3cnn(-c4cnc(Oc5c(F)cccc5F)cc4C)c3N)[nH]c2cc1N1CCCS1(=O)=O` [Example 4-2-116, [5-amino-1-[6-(2,6-difluorophenoxy)-4-methylpyridin-3-yl]pyrazol-4-yl]-[6-(1,1-dioxo-1,2-thiazolidin-2-yl)-5-methyl-1H-indol-2-yl]methanone], the results for the IC50 at human Lck enzyme (setting [1]), at human Src enzyme (setting [1]) and at human Yes1 enzyme (setting [1]) were 9.3 nM, 43 nM and 1.5 nM, respectively.
For `Cc1cc(Oc2c(F)cccc2F)ncc1-n1ncc(C(=O)c2cc3cc(F)c(N4CCCS4(=O)=O)cc3[nH]2)c1N` [Example 4-9-002, [5-amino-1-[6-(2,6-difluorophenoxy)-4-methylpyridin-3-yl]pyrazol-4-yl]-[6-(1,1-dioxo-1,2-thiazolidin-2-yl)-5-fluoro-1H-indol-2-yl]methanone] the same measures were 0.96 nM, 9.8 nM and 0.72 nM.
In the case of `Cc1cc(-n2ncc(C(=O)c3cc4cc(OC5CCN(C6CCCC6)CC5)c(-c5ccccc5F)cc4[nH]3)c2N)ccc1Oc1ccccc1F` [Example 5-1-308, [5-amino-1-[4-(2-fluorophenoxy)-3-methylphenyl]pyrazol-4-yl]-[5-(1-cyclopentylpiperidin-4-yl)oxy-6-(2-fluorophenyl)-1H-indol-2-yl]methanone], the figures for the IC50 at human Lck enzyme, on human Src enzyme and on human Yes1 enzyme were 200 nM, 1300 nM and 7.7 nM, respectively.
Regarding `Cc1cc(-n2ncc(C(=O)c3cc4cc(OC5CCN(C6CCCC6)CC5)c(-c5ccccc5C(F)(F)F)cc4[nH]3)c2N)ccc1Oc1ccccc1F` [Example 5-1-385, (5-amino-1-(4-(2-fluorophenoxy)-3-methylphenyl)-1H-pyrazol-4-yl)(5-((1-cyclopentylpiperidin-4-yl)oxy)-6-(2-(trifluoromethyl)phenyl)-1H-indol-2-yl)methanone], the IC50 on human Lck enzyme was found to be 390 nM; at human Src enzyme it was 2400 nM; on human Yes1 enzyme, 3 nM.
For `Cc1cc(Oc2ccccc2F)ccc1-n1ncc(C(=O)c2cc3cc(N4CCOCC4)c(N4CCN(S(C)(=O)=O)CC4)cc3[nH]2)c1N` [Example 5-1-093, [5-amino-1-[4-(2-fluorophenoxy)-2-methylphenyl]pyrazol-4-yl]-[6-(4-methylsulfonylpiperazin-1-yl)-5-morpholin-4-yl-1H-indol-2-yl]methanone] the same measures were 3.7 nM, 11 nM and 1.8 nM.
Turning to `Cc1cc(Oc2ccccc2F)cc(F)c1-n1ncc(C(=O)c2cc3cc(OC(F)F)c(C4CCN(S(=O)(=O)C5CC5)CC4)cc3[nH]2)c1N` [Example 4-17-007, [5-amino-1-[2-fluoro-4-(2-fluorophenoxy)-6-methylphenyl]pyrazol-4-yl]-[6-(1-cyclopropylsulfonylpiperidin-4-yl)-5-(difluoromethoxy)-1H-indol-2-yl]methanone], the IC50 came to 12 nM on human Lck enzyme (setting [1]), 22 nM at human Src enzyme (setting [1]) and 3.9 nM at human Yes1 enzyme (setting [1]).
For `Cc1cc(Oc2c(F)cccc2F)ncc1-n1ncc(C(=O)c2cc3cc(F)c(N4C(=O)N[C@@H](Cc5ccccc5)C4=O)cc3[nH]2)c1N` [Example 5-1-430, (5S)-3-[2-[5-amino-1-[6-(2,6-difluorophenoxy)-4-methylpyridin-3-yl]pyrazole-4-carbonyl]-5-fluoro-1H-indol-6-yl]-5-benzylimidazolidine-2,4-dione] the same measures were 37 nM, 280 nM and 8.4 nM.
For `Cc1cc(Oc2ccccc2F)ccc1-n1ncc(C(=O)c2cc3cc(F)c(N4CCCC4=O)cc3[nH]2)c1N` [Example 5-1-103, 1-[2-[5-amino-1-[4-(2-fluorophenoxy)-2-methylphenyl]pyrazole-4-carbonyl]-5-fluoro-1H-indol-6-yl]pyrrolidin-2-one], the IC50 at human Lck enzyme was 1.1 nM; at human Src enzyme, 5.2 nM; at human Yes1 enzyme, 0.38 nM.
Turning to `Cc1cc(Oc2ccccc2F)ncc1-n1ncc(C(=O)c2cc3cc(N4CCOCC4)c(NS(C)(=O)=O)cc3[nH]2)c1N` [Example 4-24-015, N-[2-[5-amino-1-[6-(2-fluorophenoxy)-4-methylpyridin-3-yl]pyrazole-4-carbonyl]-5-morpholin-4-yl-1H-indol-6-yl]methanesulfonamide], the IC50 on human Lck enzyme (setting [1]) worked out at 16 nM; on human Src enzyme (setting [1]), 77 nM; on human Yes1 enzyme (setting [1]), 1.3 nM.
Consider `Cc1cc(-n2ncc(C(=O)c3cc4cc(OC(F)F)c(N5C(=O)NC(C)(C)C5=O)cc4[nH]3)c2N)ccc1Oc1ccccc1F` [Example 5-1-179, 3-[2-[5-amino-1-[4-(2-fluorophenoxy)-3-methylphenyl]pyrazole-4-carbonyl]-5-(difluoromethoxy)-1H-indol-6-yl]-5,5-dimethylimidazolidine-2,4-dione], for which the IC50 on human Lck enzyme came to 180 nM; on human Src enzyme, 810 nM; at human Yes1 enzyme, 4 nM.
Consider `COc1ccccc1-c1cc2[nH]c(C(=O)c3cnn(-c4cnc(Oc5c(F)cccc5F)cc4C)c3N)cc2cc1OC1CCN(C2CCCC2)CC1` [Example 5-1-503, [5-amino-1-[6-(2,6-difluorophenoxy)-4-methylpyridin-3-yl]pyrazol-4-yl]-[5-(1-cyclopentylpiperidin-4-yl)oxy-6-(2-methoxyphenyl)-1H-indol-2-yl]methanone], for which the results for the IC50 on human Lck enzyme (setting [1]), on human Src enzyme (setting [1]) and on human Yes1 enzyme (setting [1]) were 15 nM, 87 nM and 1.9 nM, respectively.
As to `Cc1cc2cc(C(=O)c3cnn(-c4c(C)cc(Oc5cccc(F)c5F)cc4F)c3N)[nH]c2cc1NS(=O)(=O)N1CCOCC1` [Example 5-1-066, N-[2-[5-amino-1-[4-(2,3-difluorophenoxy)-2-fluoro-6-methylphenyl]pyrazole-4-carbonyl]-5-methyl-1H-indol-6-yl]morpholine-4-sulfonamide], the IC50 on human Lck enzyme was 77 nM; on human Src enzyme, 210 nM; at human Yes1 enzyme, 2.7 nM.
For `Cc1cc(Oc2ccccc2F)ccc1-n1ncc(C(=O)c2cc3cc(F)c(NS(=O)(=O)NCCO)cc3[nH]2)c1N` [Example 4-6-002, [5-amino-1-[4-(2-fluorophenoxy)-2-methylphenyl]pyrazol-4-yl]-[5-fluoro-6-(2-hydroxyethylsulfamoylamino)-1H-indol-2-yl]methanone], the IC50 came to 4.6 nM at human Lck enzyme (setting [1]), 16 nM at human Src enzyme (setting [1]) and 0.35 nM at human Yes1 enzyme (setting [1]).
For `Cc1cc(-n2ncc(C(=O)c3cc4cc(C)c(N5C(=O)NC6(CCOCC6)C5=O)cc4[nH]3)c2N)ccc1Oc1ccccc1F` [Example 5-1-469, 3-[2-[5-amino-1-[4-(2-fluorophenoxy)-3-methylphenyl]pyrazole-4-carbonyl]-5-methyl-1H-indol-6-yl]-8-oxa-1,3-diazaspiro[4.5] decane-2,4-dione], the IC50 at human Lck enzyme (setting [1]) is 100 nM; on human Src enzyme (setting [1]), 2700 nM; at human Yes1 enzyme (setting [1]), 9 nM.
Take `Cc1cc(Oc2c(F)cccc2F)ncc1-n1ncc(C(=O)c2cc3cc(F)c(N4C(=O)N[C@@H](CO)C4=O)cc3[nH]2)c1N` [Example 5-1-407, (5S)-3-[2-[5-amino-1-[6-(2,6-difluorophenoxy)-4-methylpyridin-3-yl]pyrazole-4-carbonyl]-5-fluoro-1H-indol-6-yl]-5-(hydroxymethyl) imidazolidine-2,4-dione]: the IC50 at human Lck enzyme (setting [1]) was 3.5 nM; at human Src enzyme (setting [1]) it was 74 nM; on human Yes1 enzyme (setting [1]), 2.2 nM.
Take `Cc1cc2cc(C(=O)c3cnn(-c4ccc(Oc5ccccc5F)cc4C)c3N)[nH]c2cc1N1C(=O)[C@@H]2C[C@@H](O)CN2C1=O` [Example 5-1-459, (6R,7aS)-2-[2-[5-amino-1-[4-(2-fluorophenoxy)-2-methylphenyl]pyrazole-4-carbonyl]-5-methyl-1H-indol-6-yl]-6-hydroxy-5,6,7,7a-tetrahydropyrrolo[1,2-c]imidazole-1,3-dione]: the IC50 is 2.7 nM at human Lck enzyme (setting [1]), 7.7 nM at human Src enzyme (setting [1]) and 0.44 nM at human Yes1 enzyme (setting [1]).
As to `Cc1cc(Oc2c(F)cccc2F)ncc1-n1ncc(C(=O)c2cc3cc(OCC(F)F)c(-c4cncnc4)cc3[nH]2)c1N` [Example 5-1-262, [5-amino-1-[6-(2,6-difluorophenoxy)-4-methylpyridin-3-yl]pyrazol-4-yl]-[5-(2,2-difluoroethoxy)-6-pyrimidin-5-yl-1H-indol-2-yl]methanone], the values for the IC50 at human Lck enzyme, at human Src enzyme and on human Yes1 enzyme were 12 nM, 6.4 nM and 2.3 nM, respectively.
Consider `COc1ccc(S(=O)(=O)Nc2cc3[nH]c(C(=O)c4cnn(-c5cnc(Oc6c(F)cccc6F)cc5C)c4N)cc3cc2OCC(F)F)cc1` [Example 5-1-299, N-[2-[5-amino-1-[6-(2,6-difluorophenoxy)-4-methylpyridin-3-yl]pyrazole-4-carbonyl]-5-(2,2-difluoroethoxy)-1H-indol-6-yl]-4-methoxybenzenesulfonamide], for which the IC50 is 120 nM on human Lck enzyme, 610 nM on human Src enzyme and 9.7 nM at human Yes1 enzyme.
For the molecule `Cc1cc(Oc2ccccc2F)cc(F)c1-n1ncc(C(=O)c2cc3cc(OC4CCN(C(C)C)CC4)c(Br)cc3[nH]2)c1N` [Example 5-1-154, [5-amino-1-[2-fluoro-4-(2-fluorophenoxy)-6-methylphenyl]pyrazol-4-yl]-[6-bromo-5-(1-propan-2-ylpipendin-4-yl)oxy-1H-indol-2-yl] methanone], the IC50 came to 4.3 nM on human Lck enzyme, 11 nM on human Src enzyme and 0.67 nM on human Yes1 enzyme.
`Cc1cc(Oc2cccc(F)c2F)cc(F)c1-n1ncc(C(=O)c2cc3cc(F)c(NS(C)(=O)=O)cc3[nH]2)c1N` [Example 4-7-005, N-[2-[5-amino-1-[4-(2,3-difluorophenoxy)-2-fluoro-6-methylphenyl]pyrazole-4-carbonyl]-5-fluoro-1H-indol-6-yl]methanesulfonamide]: the IC50 on human Lck enzyme (setting [1]) came out at 45 nM; on human Src enzyme (setting [1]) it was 160 nM; at human Yes1 enzyme (setting [1]), 2.8 nM.
